Test results from patent publication US7163939.
Where two headings read alike, the source gives them in different places.

Settings: rcm bond

Compound: N#Cc1ncc2nc1OCCC=CCOc1c(F)cc(Cl)cc1NC(=O)N2
- ring closure, isolated yield (from C=CCCOc1nc(NC(=O)Nc2cc(Br)cc(F)c2OCC=C)cnc1C#N, 15-membered ring, Grubbs II (10 mol%), CH2Cl2, 1.47 mM, 25.0 °C, 6.0 h): 64%

Compound: C[Si](C)(C)CCOCOc1cc2c(cc1Cl)NC(=O)Nc1cnc(C#N)c(n1)OCCC=CCO2
- ring closure, isolated yield (from C=CCCOc1nc(NC(=O)Nc2cc(Cl)c(OCOCC[Si](C)(C)C)cc2OCC=C)cnc1C#N, 15-membered ring, Grubbs II (10 mol%), DMSO workup, CH2Cl2, 1.5 mM, 25.0 °C, 16.0 h): 92%

Compound: CC1C=CCCOc2nc(cnc2C#N)NC(=O)Nc2cc(Cl)ccc2O1 (stereo not drawn)
- ring closure, isolated yield (from C=CCCOc1nc(NC(=O)Nc2cc(Cl)ccc2OC(C)C=C)cnc1C#N, 15-membered ring, Grubbs II (10 mol%), CH2Cl2, 1.97 mM, 25.0 °C, 36.0 h): 63%

Compound: O=C1Nc2cncc(n2)OCCC=CCOc2ccc(Cl)cc2N1
- ring closure, isolated yield (from C=CCCOc1cncc(NC(=O)Nc2cc(Cl)ccc2OCC=C)n1, 15-membered ring, Grubbs II (15 mol%), CH2Cl2, 2.4 mM, 50.0 °C, 16.0 h): 40%

Compound: N#Cc1ncc2nc1OCCC=CCOc1ncc(Cl)cc1NC(=O)N2
- ring closure, isolated yield (from C=CCCOc1nc(NC(=O)Nc2cc(Cl)cnc2OCC=C)cnc1C#N, 15-membered ring, Grubbs II (15 mol%), CH2Cl2, 2.75 mM, 40.0 °C, 16.0 h): 36%

Compound: N#Cc1ncc2nc1OCC=CCOc1ccc(Cl)cc1NC(=O)N2
- ring closure, isolated yield (from C=CCOc1ccc(Cl)cc1NC(=O)Nc1cnc(C#N)c(OCC=C)n1, 14-membered ring, Grubbs II (15 mol%), CH2Cl2, 1.8 mM, 40.0 °C, 16.0 h): 54%

Compound: N#Cc1ncc2nc1OCCC=CCOc1cc(N)c(Cl)cc1NC(=O)N2
- ring closure, isolated yield (from C=CCCOc1nc(NC(=O)Nc2cc(Cl)c(N)cc2OCC=C)cnc1C#N, 15-membered ring, Grubbs II (10 mol%), DMSO workup, CH2Cl2, 1.96 mM, 25.0 °C, 16.0 h): 77%

Compound: 2-oxo-18-[3-(tetrahydro-2H-pyran-2-yloxy)propyl]-2,3,11,14-tetrahydro-1H,10H-8,4-epiazeno-9,15,1,3,6-benzodioxatriazacycloheptadecine-7-carbonitrile
- ring closure, isolated yield (15-membered ring): 37%

Compound: Cc1cc(Cl)c2c(c1)NC(=O)Nc1cnc(C#N)c(n1)OCCC=CCO2
- ring closure, isolated yield (from C=CCCOc1nc(NC(=O)Nc2cc(C)cc(Br)c2OCC=C)cnc1C#N, 15-membered ring, Grubbs II (10 mol%), CH2Cl2, 2.11 mM, 40.0 °C, 16.0 h): 72%
